Calls of active or inactive are those of the source. The calls are words filed in the database; no cut-off is given here.
Columns and labels:
[1] = molecular target: T1, Bifunctional epoxide hydrolase 2 (Mus musculus, UniProt P34914); test: biochemical
T1 sequence (P34914 whole entry): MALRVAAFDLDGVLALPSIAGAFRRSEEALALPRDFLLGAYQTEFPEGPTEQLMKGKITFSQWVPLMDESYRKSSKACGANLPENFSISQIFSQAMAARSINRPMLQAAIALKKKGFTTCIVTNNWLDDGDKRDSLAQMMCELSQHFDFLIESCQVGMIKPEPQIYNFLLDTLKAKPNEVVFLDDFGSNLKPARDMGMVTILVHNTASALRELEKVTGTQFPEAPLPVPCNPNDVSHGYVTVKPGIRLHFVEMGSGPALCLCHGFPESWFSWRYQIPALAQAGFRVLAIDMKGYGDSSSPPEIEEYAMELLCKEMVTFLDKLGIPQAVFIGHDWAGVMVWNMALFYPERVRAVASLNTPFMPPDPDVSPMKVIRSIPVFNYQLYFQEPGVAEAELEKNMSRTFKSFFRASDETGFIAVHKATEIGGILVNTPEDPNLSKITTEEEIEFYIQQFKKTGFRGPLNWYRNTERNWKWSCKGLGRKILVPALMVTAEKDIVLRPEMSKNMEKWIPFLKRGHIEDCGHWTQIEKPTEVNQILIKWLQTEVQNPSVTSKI
Description: Inhibition of C57BL/6J mouse brain sEH using 14,15-EET as substrate preincubated for 15 mins followed by substrate addition by HPLC-MS analysis

Mus musculus [2] = test: Anti-inflammatory activity in BALB/c mouse model of carrageenan-induced paw edema at 20 mg/kg, po measured for 0.5 to 6 hrs; type: functional, organism-based; conditions: time 0.5-6 hrs
Mus musculus [3] = test: Anti-inflammatory activity in BALB/c mouse model of carrageenan-induced paw edema assessed as inhibition of paw swelling at 20 mg/kg, po measured for 0.5 hrs relative to control; type: functional
Mus musculus [4] = test: Anti-inflammatory activity in BALB/c mouse model of carrageenan-induced paw edema assessed as inhibition of paw swelling at 20 mg/kg, po measured for 0.5 to 6 hrs relative to control; type: functional; conditions: time 0.5-6 hrs
[5] = Ratio of AUC (0 to 24 hrs) in kidney to plasma in C57BL/6J mouse at 20 mg/kg, po measured for 24 hrs; type: ADME, organism-based; conditions: kidney and plasma, read-out: Ratio AUC
[6] = Ratio of AUC (0 to 24 hrs) in brain to plasma in C57BL/6J mouse at 20 mg/kg, po measured for 24 hrs; type: ADME, organism-based; conditions: brain and plasma, read-out: Ratio AUC
[7] = Cmax in plasma of C57BL/6J mouse at 20 mg/kg, po measured for 24 hrs; type: ADME, organism-based
Mus musculus [8] = test: Anti-inflammatory activity in BALB/c mouse model of carrageenan-induced paw edema assessed as inhibition of paw swelling at 20 mg/kg, po measured for 2 hrs relative to control; type: functional
Mus musculus [9] = test: Analgesic effect in BALB/c mouse model of acetic acid-induced writhing assessed as reduction in number of writhing episodes at 20 mg/kg, po pretreated for 1 hr followed by acetic acid treatment and measured after 5 to 35 mins relative to control; type: functional; design: scale not given: the % may be the effect or the level left; conditions: time 65-95 min
[10] = AUC (0 to 24 hrs) in brain of C57BL/6J mouse at 20 mg/kg, po measured for 24 hrs; type: ADME, organism-based
[11] = Cmax in kidney of C57BL/6J mouse at 20 mg/kg, po measured for 24 hrs; type: ADME, organism-based
[12] = Ratio of Cmax in kidney to plasma in C57BL/6J mouse at 20 mg/kg, po measured for 24 hrs; type: ADME, organism-based; conditions: kidney and plasma
[13] = Ratio of AUC (0 to 24 hrs) in liver to plasma in C57BL/6J mouse at 20 mg/kg, po measured for 24 hrs; type: ADME, organism-based; conditions: liver and plasma, read-out: Ratio AUC
[14] = AUC (0 to 24 hrs) in plasma of C57BL/6J mouse at 20 mg/kg, po measured for 24 hrs; type: ADME, organism-based
[15] = AUC (0 to 24 hrs) in kidney of C57BL/6J mouse at 20 mg/kg, po measured for 24 hrs; type: ADME, organism-based
Mus musculus [16] = test: Anti-inflammatory activity in BALB/c mouse model of carrageenan-induced paw edema assessed as inhibition of paw swelling at 20 mg/kg, po measured for 6 hrs relative to control; type: functional
[17] = Ratio of Cmax in brain to plasma in C57BL/6J mouse at 20 mg/kg, po measured for 24 hrs; type: ADME, organism-based; conditions: brain and plasma
[18] = Cmax in brain of C57BL/6J mouse at 20 mg/kg, po measured for 24 hrs; type: ADME, organism-based
[19] = AUC (0 to 24 hrs) in liver of C57BL/6J mouse at 20 mg/kg, po measured for 24 hrs; type: ADME, organism-based
[20] = Ratio of Cmax in liver to plasma in C57BL/6J mouse at 20 mg/kg, po measured for 24 hrs; type: ADME, organism-based; conditions: liver and plasma
[21] = Cmax in liver of C57BL/6J mouse at 20 mg/kg, po measured for 24 hrs; type: ADME, organism-based

Structure (SMILES)	IC50 [1] [nM]	further results
COc1cc(CC(=O)N2CCC(NC(=O)NCCN(C)C)CC2)cc(OC)c1	15700	–
CCC(=O)N1CCC(CNc2c(NC3CCN(C(=O)Cc4cc(OC)cc(OC)c4)CC3)c(=O)c2=O)CC1	164000	–
CC(C)CNC(=O)NCCCNC(=O)Cc1ccc2c(c1)OCO2	4500	–
CC(C)CNC(=O)NCCNC(=O)Cc1ccc2c(c1)OCO2	4310	–
CC(C)CNC(=O)N1CCC(NC(=O)Cc2ccc3c(c2)OCO3)CC1	3470	–
COc1cc(CC(=O)N2CCC(NC(=O)NCC3CCOCC3)CC2)cc(OC)c1	18.5	–
CN(C)C(=O)N1CCC(NC(=O)Cc2ccc3c(c2)OCO3)CC1	6390	–
COc1cc(CC(=O)N2CCC(NC(=O)Nc3ccc(OC(F)(F)F)cc3)CC2)cc(OC)c1	15.7	–
CN(C)C(=O)NC1CCN(C(=O)Cc2ccc3c(c2)OCO3)CC1	64900	–
CC(C)C(=O)NCCC/C=C/c1ccc2c(c1)OCO2	4950	–
CC(C)CNC(=O)NCCCC#Cc1ccc2c(c1)OCO2	21.9	–
CC(C)CNC(=O)NC1CCN(C(=O)Cc2ccc3c(c2)OCO3)CC1	25.3	–
O=C(Cc1ccc2c(c1)OCO2)NCCCCNC(=O)NCC1CCOCC1	1270	–
CCC(=O)N1CCC(CNC(=O)NC2CCN(C(=O)Cc3cccc(OC(F)(F)F)c3)CC2)CC1	18.8	–
CCC(=O)N1CCC(CNC(=O)NC2CCN(C(=O)Cc3cccc(NC(=O)Cc4ccccn4)c3)CC2)CC1	20.3	–
CN(C)C(=O)NCCCC/C=C/c1ccc2c(c1)OCO2	6440	–
CCC(=O)N1CCC(CNC(=O)Nc2ccc3c(c2)CNC(c2cc(OC)cc(OC)c2)C3)CC1 (stereo not drawn)	39.7	–
CC(C)CNC(=O)NCCCCCNC(=O)Cc1ccc2c(c1)OCO2	261	–
CC(C)CNC(=O)NC1CCN(CCc2ccc3c(c2)OCO3)CC1	1330	–
CN(C)C(=O)NCCC/C=C/c1ccc2c(c1)OCO2	260	–
COc1cc(CC(=O)N2CCC(NC(=O)NCc3ccc(C#N)cc3)CC2)cc(OC)c1	14.6	–
CCC(=O)N1CCC(NC(=O)Nc2ccc(OC(F)(F)F)cc2)CC1	–	inhibition in vivo at 20 mg/kg (Mus musculus [4]; Mus musculus, BALB/c): 28.8%
O=C(Cc1ccccn1)Nc1cccc(CC(=O)N2CCC(NC(=O)NCC3CCOCC3)CC2)c1	55.3	–
COc1ccc(CC(=O)N2CCC(NC(=O)NCC(C)C)CC2)cc1OC	20.2	–
CC(C)CNC(=O)NCC1CCN(C(=O)Cc2ccc3c(c2)OCO3)CC1	211	–
CCC(=O)N1CCC(NC(=O)NC2CCN(C(=O)Cc3cc(OC)cc(OC)c3)CC2)CC1	163	–
CCC(=O)NCCCCNC(=O)NC1CCN(C(=O)Cc2cc(OC)cc(OC)c2)CC1	1630	–

The remaining compounds from weak to strong by IC50 [1], led by results:

IC50 [1] [nM]	Structure (SMILES)	further results
11.3	CC(C)CNC(=O)NCCC/C=C/c1ccc2c(c1)OCO2	–
10.9	COc1cc(CC(=O)N2CCC(NC(=O)NCC(C)C)CC2)cc(OC)c1	–
10.8	CCC(=O)N1CCC(CNC(=O)NC2CCN(C(=O)Cc3cc(OC)cc(OC)c3)CC2)CC1	Kp at 24 h [5]: 135; Kp at 24 h [6]: 0.53; Cmax [7]: 76.7 ng/mL; inhibition in vivo at 20 mg/kg (Mus musculus [8]): 50.8%; Activity (Mus musculus [9]): 60%; AUC(0-t) at 24 h [10]: 173 ng·h/mL; Cmax [11]: 4010 ng/g; Kp at 24 h [12]: 52.3; inhibition in vivo at 20 mg/kg (Mus musculus [3]; Mus musculus, BALB/c): 38.6%; Kp at 24 h [13]: 237; AUC(0-t) at 24 h [14]: 323 ng·h/mL; AUC(0-t) at 24 h [15]: 43400 ng·h/mL; inhibition in vivo at 20 mg/kg (Mus musculus [16]): 37.6%; Kp at 24 h [17]: 0.59; Cmax [18]: 44.9 ng/g; AUC(0-t) at 24 h [19]: 76700 ng·h/mL; Kp at 24 h [20]: 77.5; Cmax [21]: 5940 ng/g
10.1	CCC(=O)N1CCC(CNC(=O)NC2CCN(C(=O)Cc3ccc(OC(F)(F)F)cc3)CC2)CC1	–
9.61	CCC(=O)N1CCC(CNC(=O)NC2CCN(C(=O)Cc3ccc4c(c3)OCO4)CC2)CC1	–
6.13	CCC(=O)N1CCC(CNC(=O)NC2CCN(C(=O)Cc3cccc(OC)c3)CC2)CC1	–
5.24	CCC(=O)N1CCC(CNC(=O)Nc2ccc3cc(-c4cc(OC)cc(OC)c4)ncc3c2)CC1	–
4.34	COc1cc(OC)cc(C2Cc3ccc(NC(=O)NCc4ccc(OC(F)(F)F)cc4)cc3CN2)c1 (stereo not drawn)	–
4.23	COc1ccc(CC(=O)N2CCC(NC(=O)NCc3ccc(OC(F)(F)F)cc3)CC2)cc1OC	–
3.77	CS(=O)(=O)c1ccc(CC(=O)N2CCC(NC(=O)NCc3ccc(OC(F)(F)F)cc3)CC2)cc1	Imax (Mus musculus [3]): 35.9%
3.1	O=C(Cc1ccccn1)Nc1cccc(CC(=O)N2CCC(NC(=O)NCc3ccc(OC(F)(F)F)cc3)CC2)c1	–
2.25	COc1cc(OC)cc(C(=O)N2CCC(NC(=O)NCc3ccc(OC(F)(F)F)cc3)CC2)c1	–
2.24	O=C(NCc1ccc(OC(F)(F)F)cc1)NC1CCN(C(=O)Cc2ccc(OC(F)(F)F)cc2)CC1	–
1.95	COc1cc(OC)cc(-c2cc3ccc(NC(=O)NCc4ccc(OC(F)(F)F)cc4)cc3cn2)c1	Imax (Mus musculus [4]): 12.7%
1.88	CC(C)CNC(=O)NCCCCNC(=O)Cc1ccc2c(c1)OCO2	–
0.91	O=C(NCc1ccc(OC(F)(F)F)cc1)NC1CCN(C(=O)Cc2cccc(OC(F)(F)F)c2)CC1	Imax (Mus musculus [3]): 39.7%; Activity (Mus musculus [2]): Active
0.85	O=C(NCc1ccc(OC(F)(F)F)cc1)NC1CCN(C(=O)Cc2ccc3c(c2)OCO3)CC1	Imax (Mus musculus [3]): 36.3%; Activity (Mus musculus [2]): Active
0.73	COc1cc(CCC(=O)N2CCC(NC(=O)NCc3ccc(OC(F)(F)F)cc3)CC2)cc(OC)c1	Imax (Mus musculus [3]): 28.3%; Activity (Mus musculus [2]): Active
0.54	COc1cccc(CC(=O)N2CCC(NC(=O)NCc3ccc(OC(F)(F)F)cc3)CC2)c1	Activity (Mus musculus [2]): Active
